According to patent publication US9688670B2, “Benzimidazole compounds and medical uses thereof” (Sumitomo Dainippon Pharma Co., Ltd., priority 2015, dated 2017):

Biological target: human SCN9A (Nav 1.7) (Homo sapiens, UniProt Q15858)
Assay: Measurement of Na ion current (Nav 1.7 current) by automated patch clamp assay using cells stably-expressing human SCN9A
Assay type: cell-based
Settings: concentration of each compound 10 μmol/L, holding potential inactivating 50% Nav 1.7 channel (around −60 mV), room temperature
Method: Measurement of Na Ion Current in Voltage-Dependent Na Channel Gene Expressed Cell Nav 1.7 current was measured by automated patch clamp assay using cells stably-expressing human SCN9A. Cells Stably-Expressing Human SCN9A Tetracycline-induced cells stably-expressing SCN9A were obtained from ChanTest Corporation. […] Next day, the Na ion current was measured by automated patch clamp assay. Electrophysiologic Measurement of Na Ion Current The Na ion current was measured by automated patch clamp assay using the following extracellular solution and intracellular solution. […] The control of the stimulating pulse and the data acquisition were carried out using EPC10 amplifier and Patch Master Software (HEKA). Data were sampled at 10 kHz, and low-pass filtered at 3 kHz. All the measurements were carried out at room temperature. […] The inhibitory rate of the Na ion current by the test compounds was calculated according to the following calculating formula with the peak current value generated by the depolarizing pulse. […] The inhibitory rate of Na ion current by each Example Compound was evaluated.

Chain of human SCN9A (Nav 1.7) (Q15858 whole entry): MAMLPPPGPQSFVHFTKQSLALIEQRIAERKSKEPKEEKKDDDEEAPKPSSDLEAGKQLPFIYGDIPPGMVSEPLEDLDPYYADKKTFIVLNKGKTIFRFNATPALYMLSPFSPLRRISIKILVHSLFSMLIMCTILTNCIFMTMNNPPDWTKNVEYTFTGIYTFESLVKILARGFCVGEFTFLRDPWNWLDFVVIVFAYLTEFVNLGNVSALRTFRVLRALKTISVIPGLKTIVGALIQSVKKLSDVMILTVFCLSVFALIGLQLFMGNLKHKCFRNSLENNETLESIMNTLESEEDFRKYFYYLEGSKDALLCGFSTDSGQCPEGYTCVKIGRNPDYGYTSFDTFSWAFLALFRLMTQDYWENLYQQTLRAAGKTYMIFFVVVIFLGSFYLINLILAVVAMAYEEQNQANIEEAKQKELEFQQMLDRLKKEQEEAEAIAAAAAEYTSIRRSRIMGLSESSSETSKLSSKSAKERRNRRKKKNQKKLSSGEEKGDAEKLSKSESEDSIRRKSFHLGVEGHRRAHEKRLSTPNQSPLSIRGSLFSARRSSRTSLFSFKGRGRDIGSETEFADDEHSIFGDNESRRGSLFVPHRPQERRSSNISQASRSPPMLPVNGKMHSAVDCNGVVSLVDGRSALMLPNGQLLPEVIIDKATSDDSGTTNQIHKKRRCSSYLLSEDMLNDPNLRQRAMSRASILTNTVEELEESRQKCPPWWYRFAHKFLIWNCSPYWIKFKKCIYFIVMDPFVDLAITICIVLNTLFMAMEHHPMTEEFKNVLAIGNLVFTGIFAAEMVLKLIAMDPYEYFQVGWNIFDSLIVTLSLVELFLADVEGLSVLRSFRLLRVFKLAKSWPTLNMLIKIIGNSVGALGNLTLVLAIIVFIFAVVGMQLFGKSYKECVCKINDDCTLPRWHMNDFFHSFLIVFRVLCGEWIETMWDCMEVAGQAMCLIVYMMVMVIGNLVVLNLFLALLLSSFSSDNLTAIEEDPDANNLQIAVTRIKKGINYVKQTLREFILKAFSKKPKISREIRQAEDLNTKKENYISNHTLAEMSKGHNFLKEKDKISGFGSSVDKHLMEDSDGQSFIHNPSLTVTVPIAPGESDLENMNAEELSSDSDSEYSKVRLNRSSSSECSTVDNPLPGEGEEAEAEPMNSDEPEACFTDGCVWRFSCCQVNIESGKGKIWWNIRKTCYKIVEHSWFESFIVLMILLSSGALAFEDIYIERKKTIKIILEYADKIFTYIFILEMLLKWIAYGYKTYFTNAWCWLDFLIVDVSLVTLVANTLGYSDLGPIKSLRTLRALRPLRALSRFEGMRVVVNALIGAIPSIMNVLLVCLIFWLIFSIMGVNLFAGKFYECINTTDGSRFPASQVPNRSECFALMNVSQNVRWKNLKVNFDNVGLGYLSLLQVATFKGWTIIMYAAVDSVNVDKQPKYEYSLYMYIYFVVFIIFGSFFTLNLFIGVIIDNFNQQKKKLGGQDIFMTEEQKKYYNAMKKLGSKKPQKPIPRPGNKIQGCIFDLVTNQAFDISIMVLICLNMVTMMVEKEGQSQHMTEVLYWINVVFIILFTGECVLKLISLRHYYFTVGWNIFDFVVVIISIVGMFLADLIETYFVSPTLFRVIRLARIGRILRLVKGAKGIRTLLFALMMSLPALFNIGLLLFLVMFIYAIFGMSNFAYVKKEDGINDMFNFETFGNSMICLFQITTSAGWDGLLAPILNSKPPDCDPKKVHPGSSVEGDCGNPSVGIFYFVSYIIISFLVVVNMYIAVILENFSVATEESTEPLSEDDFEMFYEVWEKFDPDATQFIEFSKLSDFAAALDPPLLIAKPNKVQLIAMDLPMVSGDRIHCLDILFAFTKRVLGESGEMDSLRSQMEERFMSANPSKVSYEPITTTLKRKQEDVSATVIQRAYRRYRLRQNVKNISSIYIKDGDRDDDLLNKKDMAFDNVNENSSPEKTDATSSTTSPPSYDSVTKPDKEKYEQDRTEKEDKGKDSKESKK

Row | SMILES | Inhibitory rate (%) of Na ion current | inhibition at 10 µM (read-out: Inhibitory rate (%) of Na ion current)
1 | OC1(Cn2cnc3ccc(Oc4ccc(C(F)(F)F)cc4)cc32)COC1 [Example 90] | 15% | –
2 | C[C@]1(O)C[C@@H](n2cnc3ccc(Oc4ccc(C(F)(F)F)cn4)cc32)C1 [Example 121] | – | 21%
